Experimental data from US6379959B1, “Metalocarboxypeptidase inhibitors and derived molecules used as antitumor agents” (Universitat Autonoma de Barcelona, priority 1996, dated 2002).
Positions of bridges follow the written chain, without caps; N, C: chain ends. No end group written: not given here.

Columns and labels:
Type in all cases: cell-based
[1] = system: human pancreatic adenocarcinoma cell line Panc-1; assay: Proliferation test with tetrazolium salts, Panc-1 in medium with serum, 10 days
Protocol: It was performed the same kind of test which had been carried out for the Capan-1 cell line but with Panc-1, another human pancreatic adenocarcinoma cell line. We are referring to a human pancreatic adenocarcinoma ATCC nr. CRL 1469, established by Lieber, M. et al. (1975) In. J. Cancer, 15: 741-747. Of ductal origin, it is not highly differentiated.
As for the Capan-1 cell line, two types of experiments were carried out with and without bovine fetal serum. The protocol followed for the test, growing in RPMI plus bovine fetal serum, was the same as that used with Capan-1 cell line but with small variations, given the difference in the duplication times between the two lines. The tests were carried out with the native PCI (wtPCI) and with the mutant PCI (PCIdelYVG). The protocol is detailed as follows:
1. In a culture plate with 96 wells, 2,000 cells were seed in 30 wells for the tests with wtPCI and in 36 for the tests with PCIdelYVG. From these 30 or 36:
In 6 wells (control), 200 μL of full medium (RPMI+10%FBS) without wtPCI or PCIdelYVG/mL were added. […]
2. The cells were kept in an incubator at 37° C., 87% of relative humidity and 10% of CO2. The old medium was sucked out with a Pasteur pipette. Medium free of wtPCI or PCIdelYVG was added to the control wells and to the others a medium was added with identical concentration of wtPCI or PCIdelYVG.
3. After 10 days, the cell growth was evaluated per well, according to the method detailed in the protocol of Section 4.B.2.a.

[2] = system: mouse melanoma B16HM cell line; assay: In vitro invasiveness assay through Matrigel membrane; conditions: PCI 50 μg/mL
Protocol: In this test, with the aim of determining whether the PCI causes some difference in the invasive capacity of tumoral cells in vitro, the number of cells which had migrated through a membrane of Matrigel© in presence or absence of PCI in the culture medium was determined. The detailed protocol is as follows:
1. The wells of Matrigel© which are going to be employed are placed at room temperature on an empty plate of 24.
2. The wells are hydrated by adding […] of tempered full medium and kept for 1.5-2.0 h.
3. After the hydration, take the medium carefully out of the wells; later on, 200,000 cells are added to two wells, respectively. In one of them, we will add the medium in which the cells grow and in the other, medium with PCI.
4. After 17 h of culture in an incubator at 37° C., 90% of relative humidity and 5% of CO2, the samples are processed as follows:
4.11. Look at the microscope and count the number of cells that have migrated through the Matrigel filter.
The invasiveness tests in vitro were carried out with the mouse melanoma B16HM cell line selected as previously described (Barberàr-Guillem, E. et al. (1988) Invasion Metastasis, 8: 266-284). The wells were placed with medium in absence of PCI (control) and in presence of PCI, at a concentration of 50 μg/mL. […]

[3] = system: human pancreatic adenocarcinoma cell line Capan-1; assay: Cytotoxicity test with BCECF-AM and propydium iodure; conditions: PCI 10-75 μg/mL, 24 h
Description: The cytotoxicity test is based on the use of two fluorophores, BCECF-AM and propydium iodure. The first one is employed to mark the viable cells because it quickly penetrates into the cellular cytoplasm where it is fragmented by the action of the esterases, becoming a fluorescent molecule. These esterases only being active when the cells are alive. Propydium iodine is a derivative of the phenanthrene which specifically joins the polynucleotide structure of nucleic acids intercalating between their pairs of bases. Due to its ionic structure it cannot penetrate into the live cells but it can do so into the dead ones, labeling DNA and RNA. […]
1. The absorbancy of the plate was read using cytofluor. The cytofluor is a fluorometer especially designed for reading the fluorescence of the cells; it is controlled by computer which makes it possible to employ various filter combinations of excitation-emission at the same time. […] These filters allow us to detect the fluorescence of the two reagents employed for the cytotoxicity test such as BCECF-AM and propydium iodide. This first reading corresponds to the self-fluorescence of the cells, which it will later be deducted from the final value of the fluorescence. […]
3. Afterwards, the absorbancy of the plate was read. This measure corresponds to the total fluorescence.
4. […] Thus, we eliminated the fluorescence that had not been incorporated by the cells. […]

Substance: PCI: potato carboxypeptidase inhibitor, isoform IIa, obtained by recombinant DNA techniques in E. coli (SEQ ID NO.2) (EQHADPICNKPCKTHDDCSGAWFCQACWNSARTCGPYVG; disulfide 12-27, 18-34, 8-24)
- Growth (Percentage in relation to the average of the controls) ([1]; 0.1 mg/mL wtPCI, RPMI+10%FBS): 90.85%
- Growth (Percentage in relation to the average of the controls) ([1]; 1 mg/mL wtPCI): 84.55%
- Growth (Percentage in relation to the average of the controls) ([1]; 10 mg/mL wtPCI): 82.22%
- Growth (Percentage in relation to the average of the controls) ([1]; 50 mg/mL wtPCI): 71.14%
- level of inhibition ([1]; concentration of 0.1 μg/mL): 9.15%
- level of inhibition ([1]; concentration of 50 μg/mL): 28.86%
- stimulation of the migration compared to the control [2]: 3.5 times
- number of cells that passed through the Matrigel membrane ([2]; 17 h (control 29 cells)): 110 cells
- cell death (propydium iodure fluorescence) [3]: No significant difference in relation to the control group
- viability of the cells (BCECF-AM fluorescence) [3]: no decrease of viability being observed
